Assay results: BindingDB's records for doi:10.1016/j.bmcl.2016.04.067 (Peking University Health Science Center, 2016)

Experiments:
[1] = Inhibition of caspase-like activity of 20S human proteasome assessed as Z-nLPnLD-AMC hydrolysis at using Promega proteasome-Glo-3 substrate incubated for 15 mins by luminescence assay
[2] = Inhibition of trypsin-like activity of 20S human proteasome assessed as Z-LRR-AMC hydrolysis at using Promega proteasome-Glo-3 substrate incubated for 15 mins by luminescence assay

| IC50 [1] [µM] | IC50 [2] [µM] | SMILES |
| --- | --- | --- |
| 103 | 220 | O=c1c2ccccc2c(-c2ccc(OCCCC[P+](c3ccccc3)(c3ccccc3)c3ccccc3)cc2)nn1-c1ccccc1 |
| 80.2 | 276 | CC(C)Cn1nc(-c2ccc(OCCCC[P+](c3ccccc3)(c3ccccc3)c3ccccc3)cc2)c2ccccc2c1=O |
| 133 | 589 | O=c1c2ccccc2c(-c2ccc(OCCCC[P+](c3ccccc3)(c3ccccc3)c3ccccc3)cc2)nn1CC1CC1 |
| 50.4 | 643 | O=c1c2ccccc2c(-c2ccc(OCCCC[P+](c3ccccc3)(c3ccccc3)c3ccccc3)cc2)nn1CC1CCCCC1 |
| 70.5 | 558 | O=c1c2ccccc2c(-c2ccc(OCCCC[P+](c3ccccc3)(c3ccccc3)c3ccccc3)cc2)nn1-c1cccs1 |
| 131 | 390 | CNc1ccc(-n2nc(-c3ccc(OCCCC[P+](c4ccccc4)(c4ccccc4)c4ccccc4)cc3)c3ccccc3c2=O)cc1 |
